# Laboratory results: patent US11701372B2, “Inhalation formulations of 1'-cyano substituted carba-nucleoside analogs” (priority 2020, dated 2023)
# Like-named read-outs stand apart in the source and are kept apart here.
# Assays:
# [1] = type: physicochemical; settings: for % assay/degs: T = 0
# Procedure: For each condition, samples were staged at ambient and refrigerated conditions. Samples were analyzed for % assay/degs, appearance, reconstitution time, pH, and compared to T=0. The structures of the key impurities/metabolites are shown below.
# [2] = In use testing of reconstituted solutions in IV bags and IV tubings; type: physicochemical
# From the text: The IV bags and IV tubings were sampled over time and tested for % assay/degradation.
# [3] = PK following IV administration of Formula Ia in African Green Monkeys; parameters: species or system African Green Monkeys; settings: monkey, in vivo; 10 mg/kg IV AGM; read-out: AUC0-t
# [4] = both, monkey, in vivo, 0.168 mg/kg
# Procedure: (§1) The average deposited dose was calculated at 0.168 mg/kg and 0.536 mg/kg, respectively. Plasma, peripheral blood mononuclear cells (PBMCs), trachea, bronchi, lung lobe, liver, kidney, nasal mucosa and nasopharyngeal mucosa samples were collected in this study.
# in vivo [5] = settings: both, monkey, inhaled or intranasal
# Procedure: as §1
# in vivo [6] = settings: both, monkey, 0.168 mg/kg
# Procedure: as §1
# [7] = Respiratory tissue concentrations after inhalation in African Green Monkeys; settings: 24 hours
# Procedure: as §1
# [8] = PBMC concentrations of metabolites after inhalation in African Green Monkeys; settings: both, monkey, in vivo
# Procedure: as §1
smiles,measurement,setting,value
N#C[C@@]1(c2ccc3c(N)ncnn23)O[C@H](CO)[C@@H](O)[C@H]1O [Compound A],"% assay/degs, difference from T = 0","[1]; pH 1.8, 2-8° C., 2 h",0.00%
same,"% assay/degs, difference from T = 0","[1]; pH 1.8, 2-8° C., 3 h",0.00%
same,"% assay/degs, difference from T = 0","[1]; pH 1.8, 2-8° C., 8 h",0.00%
same,"% assay/degs, difference from T = 0","[1]; pH 1.8, 2-8° C., 24 h",0.01%
same,"% assay/degs, difference from T = 0","[1]; pH 1.8, 2-8° C., 48 h",0.02%
same,"% assay/degs, difference from T = 0","[1]; pH 1.8, Ambient, 1 h",0.00%
same,"% assay/degs, difference from T = 0","[1]; pH 1.8, Ambient, 2 h",0.00%
same,"% assay/degs, difference from T = 0","[1]; pH 1.8, Ambient, 3 h",0.01%
same,"% assay/degs, difference from T = 0","[1]; pH 1.8, Ambient, 8 h",0.01%
same,"% assay/degs, difference from T = 0","[1]; pH 1.8, Ambient, 24 h",0.05%
same,"% assay/degs, difference from T = 0","[1]; pH 1.8, Ambient, 48 h",0.09%
same,% assay/degs,[1]; pH 1.8,0.02%
same,"% assay/degs, difference from T = 0","[1]; pH 2.0, 2-8° C., 2 h",0.00%
same,"% assay/degs, difference from T = 0","[1]; pH 2.0, 2-8° C., 3 h",0.00%
same,"% assay/degs, difference from T = 0","[1]; pH 2.0, 2-8° C., 8 h",0.00%
same,"% assay/degs, difference from T = 0","[1]; pH 2.0, 2-8° C., 24 h",0.00%
same,"% assay/degs, difference from T = 0","[1]; pH 2.0, 2-8° C., 48 h",0.01%
same,"% assay/degs, difference from T = 0","[1]; pH 2.0, Ambient, 1 h",0.00%
same,"% assay/degs, difference from T = 0","[1]; pH 2.0, Ambient, 2 h",0.00%
same,"% assay/degs, difference from T = 0","[1]; pH 2.0, Ambient, 3 h",0.00%
same,"% assay/degs, difference from T = 0","[1]; pH 2.0, Ambient, 8 h",0.01%
same,"% assay/degs, difference from T = 0","[1]; pH 2.0, Ambient, 24 h",0.03%
same,"% assay/degs, difference from T = 0","[1]; pH 2.0, Ambient, 48 h",0.06%
same,% assay/degs,[1]; pH 2.0,0.02%
same,"% assay/degs, difference from T = 0","[1]; pH 3.5, 2-8° C., 2 h",0.00%
same,"% assay/degs, difference from T = 0","[1]; pH 3.5, 2-8° C., 8 h",0.00%
same,"% assay/degs, difference from T = 0","[1]; pH 3.5, 2-8° C., 24 h",0.00%
same,"% assay/degs, difference from T = 0","[1]; pH 3.5, 2-8° C., 48 h",0.00%
same,"% assay/degs, difference from T = 0","[1]; pH 3.5, 2-8° C., 72 h",0.00%
same,"% assay/degs, difference from T = 0","[1]; pH 3.5, 2-8° C., 96 h",0.00%
same,"% assay/degs, difference from T = 0","[1]; pH 3.5, 2-8° C., 168 h",0.00%
same,"% assay/degs, difference from T = 0","[1]; pH 3.5, Ambient, 2 h",0.00%
same,"% assay/degs, difference from T = 0","[1]; pH 3.5, Ambient, 8 h",0.00%
same,"% assay/degs, difference from T = 0","[1]; pH 3.5, Ambient, 24 h",0.00%
same,"% assay/degs, difference from T = 0","[1]; pH 3.5, Ambient, 48 h",0.00%
same,"% assay/degs, difference from T = 0","[1]; pH 3.5, Ambient, 72 h",0.00%
same,"% assay/degs, difference from T = 0","[1]; pH 3.5, Ambient, 96 h",0.01%
same,"% assay/degs, difference from T = 0","[1]; pH 3.5, Ambient, 168 h",0.01%
same,% assay/degs,[1]; pH 3.5,0.02%
same,"% assay/degs, difference from T = 0","[1]; pH 3.8, 2-8° C., 7.2 h",0.00%
same,"% assay/degs, difference from T = 0","[1]; pH 3.8, 2-8° C., 24 h",0.00%
same,"% assay/degs, difference from T = 0","[1]; pH 3.8, 2-8° C., 96 h",0.00%
same,"% assay/degs, difference from T = 0","[1]; pH 3.8, 2-8° C., 168 h",0.00%
same,"% assay/degs, difference from T = 0","[1]; pH 3.8, Ambient, 7.2 h",0.00%
same,"% assay/degs, difference from T = 0","[1]; pH 3.8, Ambient, 24 h",0.00%
same,"% assay/degs, difference from T = 0","[1]; pH 3.8, Ambient, 96 h",0.00%
same,"% assay/degs, difference from T = 0","[1]; pH 3.8, Ambient, 168 h",0.00%
same,% assay/degs,[1]; pH 3.8,0.02%
same,"% assay/degs, difference from T = 0","[1]; pH 4.0, 2-8° C., 7.2 h",0.00%
same,"% assay/degs, difference from T = 0","[1]; pH 4.0, 2-8° C., 24 h",0.00%
same,"% assay/degs, difference from T = 0","[1]; pH 4.0, 2-8° C., 96 h",0.00%
same,"% assay/degs, difference from T = 0","[1]; pH 4.0, 2-8° C., 168 h",0.00%
same,"% assay/degs, difference from T = 0","[1]; pH 4.0, Ambient, 7.2 h",0.00%
same,"% assay/degs, difference from T = 0","[1]; pH 4.0, Ambient, 24 h",0.00%
same,"% assay/degs, difference from T = 0","[1]; pH 4.0, Ambient, 96 h",0.00%
same,"% assay/degs, difference from T = 0","[1]; pH 4.0, Ambient, 168 h",0.00%
same,% assay/degs,[1]; pH 4.0,0.02%
same,% assay/degradation,"[2]; 0 h, 0.3 mg/mL",0.02 % w/w
same,% assay/degradation,"[2]; 30 mg (IV Bag), Ambient 8 h",0.02 % w/w
same,% assay/degradation,"[2]; 30 mg (IV Bag), Ambient 24 h",0.02 % w/w
same,% assay/degradation,"[2]; 30 mg (IV Bag), T = 0 (2-8° C. series)",0.02 % w/w
same,% assay/degradation,"[2]; 30 mg (IV Tube), Ambient 6 Hours",0.03 % w/w
same,% assay/degradation,"[2]; 200 mg (IV Bag), 2-8° C. 24 h",0.02 % w/w
same,% assay/degradation,"[2]; 200 mg (IV Bag), 2-8° C. 48 h",0.02 % w/w
same,% assay/degradation,"[2]; 200 mg (IV Bag), Ambient 8 h",0.02 % w/w
same,% assay/degradation,"[2]; 200 mg (IV Bag), Ambient 24 h",0.02 % w/w
same,% assay/degradation,"[2]; 200 mg (IV Bag), T = 0 (2-8° C. series)",0.02 % w/w
same,% assay/degradation,"[2]; 200 mg in 100 mL 0.9% Saline (IV Bag), T = 0 (Ambient series)",0.02 % w/w
same,% assay/degradation,"[2]; 4 h, 0.3 mg/mL",0.02 % w/w
same,% assay/degradation,"[2]; 4 h, 2 mg/mL",0.02 % w/w
same,% assay/degradation,"[2]; 6 h, 2 mg/mL",0.02 % w/w
same,% assay/degradation,"[2]; 24 h, 0.3 mg/mL",0.02 % w/w
same,% assay/degradation,"[2]; 48 h, 0.3 mg/mL",0.02 % w/w
same,AUC(0-t),[3],9.06 µM·h
same,mean estimated terminal elimination half-life,[4],7.58 h
same,Tmax,in vivo [5]; 0.168 mg/kg,1 h
same,Cmax,in vivo [5]; 0.536 mg/kg,71 ± 11 nM
same,Tmax,in vivo [5]; 0.536 mg/kg,2 h
same,concentration at 24 h,in vivo [6],302 ± 44 nM
same,Metabolite Concentrations,"[7]; Lower Lung Lobe, 0.168 mg/kg inhaled deposited dose, LOQ for A and C 0.154 nmol/g tissue",BLQ
same,Metabolite Concentrations,"[7]; Lower Lung Lobe, 0.536 mg/kg inhaled deposited dose, LLOQ for A and C 0.154 nmol/g tissue",BLQ
same,Metabolite Concentrations,"[7]; Upper Bronchi, 0.168 mg/kg inhaled deposited dose, LOQ for A and C 0.154 nmol/g tissue",BLQ
same,Metabolite Concentrations,"[7]; Upper Bronchi, 0.536 mg/kg inhaled deposited dose, LLOQ for A and C 0.154 nmol/g tissue",BLQ
same,Metabolite Concentrations,"[7]; Upper Trachea, 0.168 mg/kg inhaled deposited dose, LOQ for A and C 0.154 nmol/g tissue",BLQ
same,Metabolite Concentrations,"[7]; Upper Trachea, 0.536 mg/kg inhaled deposited dose, LLOQ for A and C 0.154 nmol/g tissue",BLQ
same,concentration at 2 h,[8]; 0.168 mg/kg,331 ± 92 nM
same,concentration at 24 h,[8]; 0.536 mg/kg,457 ± 130 nM
